ChEMBL document CHEMBL4052762, “Synthesis and biological evaluation of pyrrole-based chalcones as CYP1 enzyme inhibitors, for possible prevention of cancer and overcoming cisplatin resistance” (Bioorg Med Chem Lett, 2017)

Experiments:
Cytochrome P450 1B1 = biological target: T1, Cytochrome P450 1B1 (Homo sapiens, UniProt Q16678); experiment: Inhibition of human CYP1B1 expressed in HEK293 cells using fluorogenic 7-ethoxyresorufin as substrate preincubated for 30 mins followed by substrate addition measured for 60 mins by fluorescence assay; format: cell-based
T1 sequence (Q16678 whole entry): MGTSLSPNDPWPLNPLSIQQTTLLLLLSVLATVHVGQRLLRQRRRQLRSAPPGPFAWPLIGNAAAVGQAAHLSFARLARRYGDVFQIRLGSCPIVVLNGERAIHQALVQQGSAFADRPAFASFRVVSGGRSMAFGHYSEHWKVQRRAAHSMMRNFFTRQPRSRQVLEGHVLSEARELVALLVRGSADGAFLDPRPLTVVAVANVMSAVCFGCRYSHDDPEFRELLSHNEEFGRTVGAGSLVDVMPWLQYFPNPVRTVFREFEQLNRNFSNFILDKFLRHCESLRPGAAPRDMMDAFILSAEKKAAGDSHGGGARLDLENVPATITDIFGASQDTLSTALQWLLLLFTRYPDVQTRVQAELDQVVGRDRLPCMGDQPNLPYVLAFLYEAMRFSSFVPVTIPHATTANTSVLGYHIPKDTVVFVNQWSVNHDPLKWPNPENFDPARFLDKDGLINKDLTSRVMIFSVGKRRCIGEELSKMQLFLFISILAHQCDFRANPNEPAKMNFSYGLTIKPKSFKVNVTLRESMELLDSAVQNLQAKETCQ

Cytochrome P450 2D6 = Cytochrome P450 2D6 (Homo sapiens, UniProt P10635); experiment: Inhibition of human CYP2D6 bound to yeast microsomal membrane using 7-ethoxy-methyloxy-3-cyanocoumarin as substrate after 10 mins by fluorescence assay; format: ADME
Cytochrome P450 3A4 = Cytochrome P450 3A4 (Homo sapiens, UniProt P08684); experiment: Inhibition of human CYP3A4 expressed in HEK293 cells using fluorogenic dibenzylfluorescein as substrate preincubated for 30 mins followed by substrate addition measured for 60 mins by fluorescence assay; format: ADME, cell-based
[1] = biological target: T2, Aryl hydrocarbon receptor (Homo sapiens, UniProt P35869); experiment: Antagonist activity at human AhR expressed in Saccharomyces cerevisiae W303-1A (ATCC 208352) transformed with an episomal plasmid containing a minimal CYC1 promoter, with a concatemer of five XRE enhancer sequences, linked to eGFP reporter gene and co-expressing ARNT assessed as inhibition of B[a]P agonist induced XRE-driven eGFP expression by measuring eGFP units at 5 uM after 18 hrs by …
T2 sequence (P35869 whole entry): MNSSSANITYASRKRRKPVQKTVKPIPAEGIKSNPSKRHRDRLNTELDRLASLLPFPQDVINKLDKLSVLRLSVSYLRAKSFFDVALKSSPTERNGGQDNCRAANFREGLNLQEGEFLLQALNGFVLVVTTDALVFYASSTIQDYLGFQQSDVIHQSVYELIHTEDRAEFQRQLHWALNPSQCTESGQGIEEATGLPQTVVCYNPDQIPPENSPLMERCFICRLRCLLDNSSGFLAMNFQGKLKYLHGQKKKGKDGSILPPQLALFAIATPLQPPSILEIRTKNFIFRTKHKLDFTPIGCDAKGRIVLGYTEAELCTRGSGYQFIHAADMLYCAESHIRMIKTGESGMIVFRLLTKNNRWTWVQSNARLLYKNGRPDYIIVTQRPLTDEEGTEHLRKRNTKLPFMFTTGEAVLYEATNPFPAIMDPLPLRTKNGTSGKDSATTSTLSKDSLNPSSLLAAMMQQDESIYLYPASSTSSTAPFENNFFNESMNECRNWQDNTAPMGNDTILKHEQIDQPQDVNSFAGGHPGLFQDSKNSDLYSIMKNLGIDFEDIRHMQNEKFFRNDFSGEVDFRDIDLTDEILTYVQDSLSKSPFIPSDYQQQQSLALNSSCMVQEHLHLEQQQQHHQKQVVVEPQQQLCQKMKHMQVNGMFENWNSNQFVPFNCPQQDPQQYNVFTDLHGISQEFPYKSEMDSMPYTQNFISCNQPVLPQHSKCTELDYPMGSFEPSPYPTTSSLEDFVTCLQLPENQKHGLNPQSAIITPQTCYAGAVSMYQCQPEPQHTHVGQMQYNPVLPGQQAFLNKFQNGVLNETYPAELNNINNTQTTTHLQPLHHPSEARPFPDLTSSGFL

[2] = biological target: T2, Aryl hydrocarbon receptor; experiment: Antagonist activity at human AhR expressed in Saccharomyces cerevisiae W303-1A (ATCC 208352) transformed with an episomal plasmid containing a minimal CYC1 promoter, with a concatemer of five XRE enhancer sequences, linked to eGFP reporter gene and co-expressing ARNT assessed as inhibition of B[a]P agonist induced XRE-driven eGFP expression by measuring eGFP units at 20 uM after 18 hrs by …
Cytochrome P450 1A1 = biological target: T3, Cytochrome P450 1A1 (Homo sapiens, UniProt P04798); experiment: Inhibition of human CYP1A1 expressed in HEK293 cells using fluorogenic substrate 7-ethoxyresorufin as substrate preincubated for 30 mins followed by substrate addition measured for 60 mins by fluorescence assay; format: cell-based
T3 sequence (P04798 whole entry): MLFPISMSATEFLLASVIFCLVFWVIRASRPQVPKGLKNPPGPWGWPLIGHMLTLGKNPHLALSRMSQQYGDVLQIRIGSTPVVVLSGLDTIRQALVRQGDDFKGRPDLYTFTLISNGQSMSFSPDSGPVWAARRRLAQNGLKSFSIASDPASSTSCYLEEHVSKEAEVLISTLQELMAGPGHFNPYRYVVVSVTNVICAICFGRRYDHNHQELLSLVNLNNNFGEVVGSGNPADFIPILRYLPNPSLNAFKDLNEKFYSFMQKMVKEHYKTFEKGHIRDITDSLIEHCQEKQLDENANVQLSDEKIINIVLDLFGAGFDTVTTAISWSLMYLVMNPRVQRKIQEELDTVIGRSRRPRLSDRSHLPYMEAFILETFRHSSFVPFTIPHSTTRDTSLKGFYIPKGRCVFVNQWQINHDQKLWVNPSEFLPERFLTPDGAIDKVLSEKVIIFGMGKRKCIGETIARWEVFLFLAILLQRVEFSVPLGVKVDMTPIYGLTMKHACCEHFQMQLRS

[3] = biological target: T2, Aryl hydrocarbon receptor; experiment: Antagonist activity at human AhR expressed in Saccharomyces cerevisiae W303-1A (ATCC 208352) transformed with an episomal plasmid containing a minimal CYC1 promoter, with a concatemer of five XRE enhancer sequences, linked to eGFP reporter gene and co-expressing ARNT assessed as inhibition of B[a]P agonist induced XRE-driven eGFP expression by measuring eGFP units at 10 uM after 18 hrs by …
Cytochrome P450 2C9 [4] = biological target: T4, Cytochrome P450 2C9 (Homo sapiens, UniProt P11712); experiment: Inhibition of human CYP2C9 bound to yeast microsomal membrane using 3-cyano-7-ethoxycoumarin as substrate after 10 mins by fluorescence assay; format: ADME
Cytochrome P450 2C19 = Cytochrome P450 2C19 (Homo sapiens, UniProt P33261); experiment: Inhibition of human CYP2C19 expressed in HEK293 cells using fluorogenic 3-cyano-7-ethoxycoumarin as substrate preincubated for 30 mins followed by substrate addition measured for 60 mins by fluorescence assay; format: ADME, cell-based
Cytochrome P450 2C9 [5] = biological target: T4, Cytochrome P450 2C9; experiment: Inhibition of human CYP2C9 expressed in HEK293 cells using fluorogenic 3-cyano-7-ethoxycoumarin as preincubated for 30 mins followed by substrate addition measured for 60 mins by fluorescence assay; format: ADME, cell-based

Cytochrome P450 2C19, sequence (P33261 whole entry): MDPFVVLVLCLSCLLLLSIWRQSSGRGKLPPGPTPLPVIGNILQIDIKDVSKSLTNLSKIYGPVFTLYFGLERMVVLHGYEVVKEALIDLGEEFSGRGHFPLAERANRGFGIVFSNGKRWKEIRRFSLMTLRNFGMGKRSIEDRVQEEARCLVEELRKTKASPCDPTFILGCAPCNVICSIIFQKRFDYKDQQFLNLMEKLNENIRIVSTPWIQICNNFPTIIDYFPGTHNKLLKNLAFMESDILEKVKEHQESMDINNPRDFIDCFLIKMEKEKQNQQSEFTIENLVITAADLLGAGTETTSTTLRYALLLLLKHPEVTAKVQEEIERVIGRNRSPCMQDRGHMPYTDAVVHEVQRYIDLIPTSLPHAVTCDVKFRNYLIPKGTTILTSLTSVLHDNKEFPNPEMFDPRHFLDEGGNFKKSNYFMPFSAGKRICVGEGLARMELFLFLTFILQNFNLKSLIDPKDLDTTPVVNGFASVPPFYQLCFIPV
Cytochrome P450 3A4, sequence (P08684 whole entry): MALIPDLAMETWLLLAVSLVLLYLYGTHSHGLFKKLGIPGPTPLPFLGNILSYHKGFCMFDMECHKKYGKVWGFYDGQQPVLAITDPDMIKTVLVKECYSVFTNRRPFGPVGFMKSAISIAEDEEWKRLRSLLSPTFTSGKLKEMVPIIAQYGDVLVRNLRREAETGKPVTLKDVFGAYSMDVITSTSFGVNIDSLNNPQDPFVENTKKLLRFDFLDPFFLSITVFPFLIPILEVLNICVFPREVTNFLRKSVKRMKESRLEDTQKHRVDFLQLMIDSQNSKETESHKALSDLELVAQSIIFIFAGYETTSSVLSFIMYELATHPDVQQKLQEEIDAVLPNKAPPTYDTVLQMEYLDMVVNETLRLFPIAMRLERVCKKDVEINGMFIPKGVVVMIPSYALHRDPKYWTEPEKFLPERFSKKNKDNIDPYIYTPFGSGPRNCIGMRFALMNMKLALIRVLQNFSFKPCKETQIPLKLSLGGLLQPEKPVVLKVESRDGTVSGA
T4 sequence (P11712 whole entry): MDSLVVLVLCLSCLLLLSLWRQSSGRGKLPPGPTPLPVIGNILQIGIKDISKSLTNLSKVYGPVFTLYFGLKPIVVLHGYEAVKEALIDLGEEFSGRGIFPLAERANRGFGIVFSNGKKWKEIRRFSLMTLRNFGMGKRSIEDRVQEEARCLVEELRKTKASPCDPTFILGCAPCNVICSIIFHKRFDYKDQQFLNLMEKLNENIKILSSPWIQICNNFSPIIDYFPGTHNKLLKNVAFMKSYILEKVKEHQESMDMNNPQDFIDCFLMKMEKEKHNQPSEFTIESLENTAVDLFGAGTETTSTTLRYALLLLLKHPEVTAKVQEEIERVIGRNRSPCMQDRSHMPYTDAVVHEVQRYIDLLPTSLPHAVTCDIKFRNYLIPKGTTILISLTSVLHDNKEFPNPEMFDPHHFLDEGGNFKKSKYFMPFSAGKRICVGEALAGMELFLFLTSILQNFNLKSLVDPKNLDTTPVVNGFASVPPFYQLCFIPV
Cytochrome P450 2D6, sequence (P10635 whole entry): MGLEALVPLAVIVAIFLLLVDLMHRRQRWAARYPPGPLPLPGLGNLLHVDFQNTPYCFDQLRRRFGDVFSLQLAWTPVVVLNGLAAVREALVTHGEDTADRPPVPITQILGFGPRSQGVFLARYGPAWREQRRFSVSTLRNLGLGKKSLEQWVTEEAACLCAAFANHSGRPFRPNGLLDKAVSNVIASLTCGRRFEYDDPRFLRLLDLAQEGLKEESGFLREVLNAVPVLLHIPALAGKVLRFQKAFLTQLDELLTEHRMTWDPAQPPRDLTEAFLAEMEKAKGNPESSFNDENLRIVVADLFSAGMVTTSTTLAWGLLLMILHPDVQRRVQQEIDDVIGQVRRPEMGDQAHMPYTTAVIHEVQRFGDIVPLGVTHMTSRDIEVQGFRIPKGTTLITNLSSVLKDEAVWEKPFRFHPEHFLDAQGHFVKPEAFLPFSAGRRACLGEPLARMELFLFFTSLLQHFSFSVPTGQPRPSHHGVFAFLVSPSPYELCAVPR

IC50 (Cytochrome P450 1B1)	IC50 (Cytochrome P450 2D6)	IC50 (Cytochrome P450 3A4)	Activity [1]	Activity [2]	IC50 (Cytochrome P450 1A1)	Activity [3]	IC50 (Cytochrome P450 2C9 [4])	IC50 (Cytochrome P450 2C19)	IC50 (Cytochrome P450 2C9 [5])	Structure (SMILES)
0.25 µM	12 µM	> 10 µM	770 U	285 U	> 20 µM	455 U	> 20 µM	> 10 µM	> 10 µM	O=C(/C=C/c1ccccc1Cl)c1ccc[nH]1
> 20 µM	16 µM	> 20 µM	955 U	955 U	> 20 µM	955 U	> 20 µM	> 20 µM	> 20 µM	O=C(/C=C/c1ccc(OC(F)(F)F)cc1)c1ccc[nH]1
1.2 µM	20 µM	> 10 µM	220 U	120 U	1.2 µM	150 U	> 20 µM	> 10 µM	> 10 µM	COc1ccccc1/C=C/C(=O)c1ccc[nH]1
